Results: patent publication US20100029652A1, “Combination Therapy For Treating Hepatitis C Infections” (ACHILLION PHARMACEUTICALS, INC., priority 2007, published 2010)

Assays:
[1] = system: HCV replicon in Huh-9-13 cells; assay: Long term combination study: replicon curing assay, colony formation after G418 selection; format: cell-based, hepatitis C virus; conditions: approximately 5×EC50
Description: In other repetitions of this experiment, treatment time varied from 7 to 10 days. Cells were passaged once every 3 days into new plates at the same density (10^5 cells/plate) and with fresh compounds. No G418 was present during the 9 day treatment. On day 10, the cells were passaged again to new plates at a density of 10^5 cells/plate, respectively, and were treated only with G418 for approximately 3 more weeks. […] During the 2˜3 weeks, the old media were replaced with fresh media twice a week. The colonies were fixed with 10% formaldehyde and stained with 2% crystal violet in 20% ethanol.
In this assay, the number of the cells in which the replicons still remained after the 9-day treatment was quantified based on the number of the colonies formed after G418 selection.

[2] = system: HCV replicon (subtype 1b, Con-1) in Huh-luc/neo cells; assay: Short term combination study: HCV replicon luciferase assay in Huh-luc/neo cells, 3-days treatment; format: cell-based, hepatitis C virus; conditions: for CI (SD) at Replicon inhibition of 50% / CI (SD) at Replicon inhibition of 75% / CI (SD) at Replicon inhibition of 90%: combined with ACH-806, Chou and Talalay; for CI (SD) at Replicon inhibition of 50% / CI (SD) at Replicon inhibition of 75% / CI (SD) at Replicon inhibition of 90% / Overall combinatory antiviral activity / Volume (SD) Antagonism / Volume (SD) Synergy: 3-days treatment; for Overall combinatory antiviral activity / Volume (SD) Antagonism / Volume (SD) Synergy: drug combined with ACH-806; for Volume (SD) Antagonism / Volume (SD) Synergy: Prichard and Shipman model; for combination effect on antiviral activity: in combination with ACH-806, Huh-luc/neo cells treated for 3 days
Description: Huh-luc/neo cells were seeded in 96-well plates at a density of 7000 cells/per well. […] Dose-response curves for the individual compounds and their combinations were all run in quadruplicate.
The experimental data were analyzed using CalcuSyn (Biosoft, Ferguson, Mo.), a computer program based on the method of Chou and Talalay (Chou, T. C. and P. Talalay, Quantitative analysis of dose-effect relationships: the combined effects of multiple drugs or enzyme inhibitors (1984) Adv. Enzyme Regul. 22: 27-55). In this model, the dose-effect curves for each drug or drug combination are converted to median-effect plots with the program. The effect of combination is then compared to that of a single agent. A combination index (CI) value for each experimental combination is calculated on the basis of the following equation:
CI=[(D)1/(Dx)1]+[(D)2/(Dx)2]+[(D)1(D)2/(Dx)1(Dx)2],
By convention a CI of <0.9 is considered synergistic, a CI of ≧0.9 or ≦1.1 is considered additive, and a CI of >1.1 is deemed antagonistic.
The extent of synergy or antagonism was also assessed in a three-dimensional analytical method developed by Prichard and Shipman (Prichard, M. Shipman, K., A three-dimensional model to analyze drug-drug interactions, (1990) Antiviral Res. 14: 181-206). In this model, the theoretical additive effect is calculated from the dose-response curves of individual compounds by the equation Z=X+Y(1−X), where X and Y represent the inhibition produced by drug 1 alone and drug 2 alone, and respectively Z represents the effect produced by the combination of drug 1 and drug 2. The theoretical additive surface is subtracted from the actual experimental surface, resulting in a surface that would appear as a horizontal plane at 0% inhibition if the combination were merely additive. Any peak above this plane would indicate synergy, whereas any depression below it would indicate antagonism. The 95% confidence intervals for the experimental dose-response surface are used to evaluate the data statistically. The volume of the peak or depression is calculated to quantify the overall synergy or antagonism produced. Based on Prichard et al., volumes of synergy greater than 50 μM^2% may be considered significant as may volumes of antagonism of less than −50 μM^2%, wherein the units of the X and Y axis are both μM and the unit of the Z axis is the percentage of inhibition. Results

[3] = single agent by itself, 9-day treatment
[4] = in combination with ACH-806, 9-day treatment

SMILES	log reduction of replicon-containing cells [1, 3]	replicon-containing cells cured [1, 3]	log reduction of replicon-containing cells [1, 4]	replicon-containing cells cured [1, 4]	CI (SD) at Replicon inhibition of 50% ([2]; molar ratio 1:16)	CI (SD) at Replicon inhibition of 75% ([2]; molar ratio 1:16)	CI (SD) at Replicon inhibition of 90% ([2]; molar ratio 1:16)	CI (SD) at Replicon inhibition of 50% ([2]; molar ratio 1:32)	CI (SD) at Replicon inhibition of 75% ([2]; molar ratio 1:32)	CI (SD) at Replicon inhibition of 90% ([2]; molar ratio 1:32)	Overall combinatory antiviral activity [2]	Volume (SD) Antagonism [2]	Volume (SD) Synergy [2]	combination effect on antiviral activity [2]	CI (SD) at Replicon inhibition of 50% ([2]; molar ratio 1:10)	CI (SD) at Replicon inhibition of 75% ([2]; molar ratio 1:10)	CI (SD) at Replicon inhibition of 90% ([2]; molar ratio 1:10)	CI (SD) at Replicon inhibition of 50% ([2]; molar ratio 1:20)	CI (SD) at Replicon inhibition of 75% ([2]; molar ratio 1:20)	CI (SD) at Replicon inhibition of 90% ([2]; molar ratio 1:20)
CCCCCOc1ccc(NC(=S)NC(=O)c2cccnc2)cc1C(F)(F)F [ACH-806]	1 log	about 90%	–	–	–	–	–	–	–	–	–	–	–	–	–	–	–	–	–	–
CC1(O)C(O)C(CO)OC1n1ccc(N)nc1=O (centres unmarked) [NM-107]	1 log	about 90%	4 log	~99.99%	0.69 (0.02)	0.72 (0.06)	0.79 (0.12)	0.67 (0.07)	0.71 (0.05)	0.83 (0.25)	Synergy	2 (2) μM^2%	116 (77) μM^2%	synergistic antiviral activity	–	–	–	–	–	–
CCC[C@H](NC(=O)[C@@H]1[C@H]2CCC[C@H]2CN1C(=O)[C@@H](NC(=O)[C@@H](NC(=O)c1cnccn1)C1CCCCC1)C(C)(C)C)C(=O)C(=O)NC1CC1 [VX-950, telaprevir]	–	–	–	–	–	–	–	–	–	–	Synergy	8 (3) μM^2%	119 (4) μM^2%	synergistic antiviral activity	0.86 (0.09)	0.82 (0.11)	0.83 (0.13)	0.79 (0.06)	0.61 (0.12)	0.50 (0.15)
